“And” between values parts separate entries of the source, which are not always exact repeats. Equal values may be shown once. Read-outs that look alike come from different tables or passages of the source.
Assays:
[1] = Stability of aqueous solution (time for 5% drug loss, t95); assay type: physicochemical; details: 37° C.
[2] = test system: panel of tumor cell lines; assay: In vitro cytotoxicity assay (MTS), panel of tumor cell lines; assay type: cell-based; details: Homo sapiens; 7 of the 8 cell lines tested, 72-hour incubation
HCT116/VM46 cells = assay: In vitro cytotoxicity assay (MTS), HCT116/VM46; assay type: cell-based, human; details: Homo sapiens, HCT-116/VM46; HCT116/VM46 (MDR colon line), 72-hour incubation
[3] = test system: tubulin isolated from calf brain; assay type: biochemical
[4] = Effects of formulation on antitumor efficacy; assay type: in vivo
[5] = Stability in rat EDTA plasma and whole blood; assay type: in vitro ADME
Description: Plasma samples from exploratory pharmacokinetic studies were analyzed for Compound A concentrations using an LC/MS/MS assay with a standard curve range of 3.9 to 2000 ng/mL. In pharmacodynamic studies, Compound A concentrations were determined using an LC/MS/MS assay with a standard curve range of 10-40000 nM (5.23-20920 ng/mL) in mouse plasma. For toxicology studies, validated LC/MS/MS assays were used to determine the concentrations of Compound A in rat and dog plasma. Analytical data management for the validated assays was carried out using Watson®. The standard curve range for the validated assay in both matrices was 2 to 500 ng/mL of Compound A. The coefficient of variation for the inter- and intra-assay precision in rat and dog plasma was within 9% and the accuracy was greater than 92%. […] Compound A was stable for at least 4 months at !20EC and through at least 3 freeze-thaw cycles in rat and dog EDTA plasma. In addition, Compound A was stable in fresh rat and dog EDTA whole blood for at least 1 h at 4EC.

[6] = Single dose IV toxicokinetic study in dogs; assay type: in vivo; details: both sexes, dog, plasma, IV infusion; for Cmax: combined across gender
Description: The single dose IV toxicokinetics of Compound A were evaluated in dogs as a part of a toxicology study. Compound A, prepared in 50 mM citrate buffer (pH 5), was given by IV infusion (over approximately 2-3 min period) at nominal doses of 0.07 and 0.35 mg/kg (the actual doses were 0.055 and 0.27 mg/kg, respectively) to 2 dogs/sex/dose. Blood samples were collected at 5 and 30 minutes, and at 1, 3, 6, 12, and 24 h after dosing. Plasma concentrations of Compound A were determined using a validated LC/MS/MS assay with a standard curve range of 2-500 ng/mL. […] Definitive comparison between sex was not made due to limited sample size per sex; however, it appeared that there were no marked differences in the systemic exposure to Compound A between male and female dogs.

[7] = Oral bioavailability in humans; details: in vivo, human patients
From the text: Compound A was well absorbed orally, providing a favorable drug exposure profile that is consistant with efficacious exposure in preclinical cancer models.

CYP3A4 = CYP3A4 (Homo sapiens, UniProt P08684); assay: Metabolism by specific CYP enzymes (human liver microsomes with specific inhibitors); assay type: in vitro ADME
Sequence of CYP3A4 (P08684 whole entry): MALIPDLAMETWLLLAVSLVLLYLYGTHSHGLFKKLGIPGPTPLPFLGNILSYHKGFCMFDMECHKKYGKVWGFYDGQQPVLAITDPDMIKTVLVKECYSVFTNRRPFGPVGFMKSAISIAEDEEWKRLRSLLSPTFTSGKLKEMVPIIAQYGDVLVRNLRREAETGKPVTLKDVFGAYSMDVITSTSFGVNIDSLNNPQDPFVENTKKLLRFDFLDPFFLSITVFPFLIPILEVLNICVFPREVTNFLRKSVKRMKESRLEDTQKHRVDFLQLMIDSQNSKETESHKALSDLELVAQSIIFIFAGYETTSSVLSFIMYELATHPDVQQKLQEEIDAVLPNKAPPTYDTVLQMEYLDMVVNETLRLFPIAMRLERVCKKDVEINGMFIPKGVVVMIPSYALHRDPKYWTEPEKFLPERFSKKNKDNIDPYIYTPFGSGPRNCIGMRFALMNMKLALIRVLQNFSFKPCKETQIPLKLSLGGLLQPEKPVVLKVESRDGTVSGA
Description: Compound A was incubated with human liver microsomes along with compounds specific for the inhibition of individual cytochrome P450s commonly involved in drug metabolism. The inhibitors used were; furafylline (CYP1A2), sulfaphenazole (CYP2C9), tranylcypromine (CYP2C19), quinidine (CYP2D6), troleandomycin (CYP3A4), and ketoconazole (CYP3A4).

[8] = Stability of diluted solutions; assay type: physicochemical; details: diluted with 0.9% Sodium Chloride Injection, 5° C. or room temperature and room light
[9] = test system: Pat-26 human pancreatic carcinoma; details: mouse, in vivo
[10] = vehicle 1 versus vehicle 2
Description: In another pharmacokinetic study, fasted male Sprague-Dawley rats, assigned to two IA groups (2 mg/kg) and one oral (8 mg/kg) group (n=3/group), were administered a single dose of Compound A. Compound A was prepared for IA administration in two separate vehicles: vehicle 1, cremophor:ethanol:water (10:10:80), and vehicle 2, ethanol:phosphate buffer, 0.05 M, pH 7.4 (6:94). The vehicle for the oral administration was ethanol:phosphate buffer, 0.3 M, pH 8 (18:82). Samples were collected at 10, 15, 30, and 45 min, and at 1, 2, 4, 6, 8, 10, 24, and 48 hours after dosing.

[11] = rat, in vivo
in vivo = details: Balb/c nu/nu, mouse, po
human CYP2C19 = human CYP2C19 (Homo sapiens, UniProt P33261); assay: biochemical
Sequence of human CYP2C19 (P33261 whole entry): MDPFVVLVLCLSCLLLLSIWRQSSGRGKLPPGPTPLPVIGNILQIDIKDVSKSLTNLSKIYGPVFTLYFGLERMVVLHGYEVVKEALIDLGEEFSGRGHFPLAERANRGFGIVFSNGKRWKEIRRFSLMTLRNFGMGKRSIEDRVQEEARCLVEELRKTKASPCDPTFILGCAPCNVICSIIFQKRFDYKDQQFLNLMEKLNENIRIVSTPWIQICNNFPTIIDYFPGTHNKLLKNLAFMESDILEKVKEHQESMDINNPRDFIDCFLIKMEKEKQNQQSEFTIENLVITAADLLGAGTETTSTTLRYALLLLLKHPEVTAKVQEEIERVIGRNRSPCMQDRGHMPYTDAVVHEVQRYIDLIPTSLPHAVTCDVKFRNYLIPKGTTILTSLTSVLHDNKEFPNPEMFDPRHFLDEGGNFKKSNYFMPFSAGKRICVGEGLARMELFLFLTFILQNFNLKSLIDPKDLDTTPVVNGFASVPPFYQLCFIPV

CYP2C9 = CYP2C9 (Homo sapiens, UniProt P11712); assay: biochemical
Sequence of CYP2C9 (P11712 whole entry): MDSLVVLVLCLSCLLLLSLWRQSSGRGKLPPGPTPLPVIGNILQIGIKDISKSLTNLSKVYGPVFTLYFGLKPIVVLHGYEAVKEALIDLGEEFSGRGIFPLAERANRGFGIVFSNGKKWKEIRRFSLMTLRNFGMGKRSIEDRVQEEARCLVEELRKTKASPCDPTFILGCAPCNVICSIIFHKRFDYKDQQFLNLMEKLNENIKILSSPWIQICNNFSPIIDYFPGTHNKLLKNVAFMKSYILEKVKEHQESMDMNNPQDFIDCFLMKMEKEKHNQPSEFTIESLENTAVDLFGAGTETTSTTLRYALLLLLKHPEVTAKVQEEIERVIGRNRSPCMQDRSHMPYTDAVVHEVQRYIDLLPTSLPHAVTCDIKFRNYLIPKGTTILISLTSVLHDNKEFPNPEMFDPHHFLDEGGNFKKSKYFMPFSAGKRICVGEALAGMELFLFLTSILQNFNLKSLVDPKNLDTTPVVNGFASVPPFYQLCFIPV

Liver S9 incubation, dog = details: dog liver S9, 20 μM
[12] = Liver S9 incubation, mouse; details: mouse liver S9, 20 μM
[13] = Liver S9 incubation, human; details: human liver S9, 20 μM
[14] = Microsomal incubation, human; details: human liver microsomes + NADPH, 20 μM
CYP2D6 = CYP2D6 (Homo sapiens, UniProt P10635); assay: Inhibition of human CYP enzymes, CYP2D6
Sequence of CYP2D6 (P10635 whole entry, the tested form may be a part): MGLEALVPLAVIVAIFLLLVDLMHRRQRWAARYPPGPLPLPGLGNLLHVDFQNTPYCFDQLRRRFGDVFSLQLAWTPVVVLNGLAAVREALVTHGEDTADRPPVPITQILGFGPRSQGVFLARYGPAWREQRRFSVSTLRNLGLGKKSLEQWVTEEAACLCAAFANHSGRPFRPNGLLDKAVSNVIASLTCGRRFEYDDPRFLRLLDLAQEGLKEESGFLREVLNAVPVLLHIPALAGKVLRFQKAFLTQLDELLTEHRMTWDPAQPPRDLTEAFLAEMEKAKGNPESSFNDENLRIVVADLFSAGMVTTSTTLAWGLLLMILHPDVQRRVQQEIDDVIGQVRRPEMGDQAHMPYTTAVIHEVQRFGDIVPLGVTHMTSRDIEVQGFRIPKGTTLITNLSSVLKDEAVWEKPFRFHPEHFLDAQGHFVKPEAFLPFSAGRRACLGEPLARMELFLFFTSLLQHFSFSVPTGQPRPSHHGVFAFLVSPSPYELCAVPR

[15] = Plasma apparent steady-state concentration after 10-h IV infusion
[16] = 40 mg/m2, oral, 40 mg/m^2, n=10

C/C(=C\c1csc(CN)n1)[C@@H]1C[C@@H]2O[C@]2(C)CCC[C@H](C)[C@H](O)[C@@H](C)C(=O)C(C)(C)[C@@H](O)CC(=O)O1 (relative stereo) [Compound A, [1S-[1R*,3R*(E),7R*,10S*,11R*,12R*,16S*]]-3-[2-[2-(aminomethyl)-4-thiazolyl]-1-methylethenyl]-7,11-dihydroxy-8,8,10,12,16-pentamethyl-4,17-dioxabicyclo[14.1.0]heptadecane-5,9-dione]
time for 5% drug loss (t95) ([1]; pH 2.5): < 0.2 h | time for 5% drug loss (t95) ([1]; pH 7): approximately 14 h | IC50 [2]: 0.9 to 3.5 nM | IC50 (HCT116/VM46 cells): 11.9 nM | Polymerization Potency, EC0.01 [3]: 7400 nM | Ratio of Polymerization Potency of Analog/Paclitaxel [3]: 1.7 | LCK ([4]; formulated in cremophor/ethanol/water (10:10:80, v/v/v)): 3.3 | LCK ([4]; formulated in sodium acetate buffer (30 mM, pH 5.0)): 3.4 | stable through freeze-thaw cycles ([5]; rat EDTA plasma): at least 3 freeze-thaw cycles | stable in frozen plasma ([5]; rat EDTA plasma, !20EC): at least 4 months | stable in plasma prior to processing ([5]; rat EDTA plasma, room temperature): at least 4 h | stable in fresh whole blood ([5]; rat EDTA whole blood, 4EC): at least 1 h | stable in an autosampler after processing ([5]; rat plasma samples, 4EC): at least 5 days | AUC ([6]; 0.055 mg/kg): 48.3 ng·h/mL | Cmax ([6]; 0.055 mg/kg): 104 ng/mL | AUC ([6]; 0.27 mg/kg): 362 ng·h/mL | Cmax ([6]; 0.27 mg/kg): 664 ng/mL | AUC [7, 16]: 631 ng·h/mL | Cmax [7, 16]: 177 ng/mL | half-life ([7]; 40 mg/m2, oral, 40 mg/m^2, n=10, read-out: Half-Life (SD) (converted)): 29.8 h | Tmax ([7]; 40 mg/m2, oral, 40 mg/m^2, n=10, read-out: Tmax, median (minimum, maximum)): 1 h | bioavailability ([7]; oral vs IV, 40 mg/m^2, n = 9, read-out: Bioavailability (SD)): 27% | effect of CYP3A4 inhibitors (troleandomycin, ketoconazole) on biotransformation (CYP3A4): completely inhibited | time solutions are stable after final dilution [8]: ≤ 24 h | MTD [9]: 10 mg/kg/inj | LCK (gross log cell kill) ([9]; iv): 1.2 | increase in systemic exposure with cremophor vehicle (vehicle 2 compared to vehicle 1): about 3.4 fold | increase in systemic exposure with cremophor vehicle (vehicle 2 compared to vehicle 3): ~5.3 fold | increase in systemic exposure with cremophor vehicle [10]: about 4 fold | drug related material in bile [11]: No drug related material was detected | percent of the dose recovered in the urine as parent ([11]; iv, 2 mg/kg): approximately 18% | percent of the dose recovered in the urine as parent ([11]; po, 8 mg/kg): ~2.4% | MTD (in vivo): 90 mg/kg | IC50 (human CYP2C19): 2400 nM | IC50 (CYP2C9): 10600 nM | rate of oxidative metabolism (Liver S9 incubation, dog): 0.03 | rate of oxidative metabolism [12]: 0.06 | rate of oxidative metabolism [13]: 0.06 | rate of oxidative metabolism [14]: 0.21 mmol/min/mg protein | IC50 (CYP2D6): > 70000 nM | apparent steady-state concentrations ([15]; doses of 2 and 4 mg/kg, 10-h IV infusion, mouse plasma): 18-31 ng/mL and 35-60 nM | MEC ([15]; estimated from plasma Css, 10-hr IV infusion, Pat-7 model): 35 to 60 nM
